Consider 8 compounds from patent US8889878B2, “Haloalky-substituted amides as insecticides and acaricides” (Bayer CropScience AG, priority 2009, dated 2014).

Data set [1] has as its system Boophilus microplus. Briefly: Boophilus microplus test (BOOPMI injection), Example 11. As to conditions: application rate 20 μg/animal, injected into abdomen, after 7 days. It is filed as in vivo. In a few lines: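 Adult ticks injected in the abdomen with compound diluted in DMSO, then held in a climate-controlled room. Efficacy in % determined after 7 days from fertile eggs laid; 100% means no tick laid fertile eggs.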

For the next data set, the system named is Ctenocephalides felis. Description: Ctenocephalides felis oral (CTECFE), Example 12. It is filed as in vivo. As to conditions: application rate 100 ppm in citrated cow's blood, after 2 days. The method, then:
Ctenocephalides felis Oral ([…]) • Solvent: 1 part by weight of dimethyl sulphoxide For the purpose of preparing an appropriate active ingredient formulation, 10 mg of active ingredient are mixed with 0.5 ml of dimethyl sulphoxide. A portion of the concentrate is diluted with citrated cow's blood and the desired concentration is established. About 20 unfed adult fleas (Ctenocephalides felis) are placed into a chamber sealed at the top and bottom with gauze. A metal cylinder with its lower end sealed with Parafilm is placed onto the chamber. The cylinder contains the blood-active ingredient preparation, which can be consumed by the fleas through the Parafilm membrane. After 2 days, the kill rate in % is determined. 100% means that all fleas were killed; 0% means that no fleas were killed.

In data set [2] the test system is armyworm (Spodoptera frugiperda). Briefly: Spodoptera frugiperda test (SPODFR spray treatment), Example 15. It is filed as in vivo. As to conditions: maize leaf discs sprayed, after 7 days. In a few lines: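 Maize leaf discs sprayed with active ingredient in acetone/DMF with alkylaryl polyglycol ether emulsifier, diluted in water, then populated with caterpillars after drying. Efficacy in % after 7 days: 100% all caterpillars killed, 0% none.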

Data set [3] in a line: logP by HPLC on reverse-phase column (EEC Directive 79/831 Annex V.A8). It is filed as physicochemical. As to conditions: for logP: HPLC-MS. The method, then:
The logP values reported in the above Tables and Preparation Examples were determined according to EEC Directive 79/831 Annex V.A8 by HPLC (High Performance Liquid Chromatography) on a reverse-phase column (C18). Temperature 43° C.

The subject of data set [4] is Boophilus microplus. Description: Boophilus microplus test (BOOPMI injection), Example 1. The format is in vivo. To be noted: application rate 20 μg/animal, injected into abdomen, after 7 days. In a few lines: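 Compound in DMSO, diluted with water, injected into the abdomen of engorged ticks, which were then held in a climate-controlled room. Efficacy was scored after 7 days from fertile egg laying, with 100% meaning no tick laid fertile eggs.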

In data set [5] the test system is mustard beetle (Phaedon cochleariae). Briefly: Phaedon test (PHAECO spray treatment), Example 16. The format is in vivo. To be noted: application rate 500 g/ha, china cabbage leaf discs sprayed, after the desired time. A digest of the protocol: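 Chinese cabbage leaf discs sprayed with acetone/DMF-emulsifier formulation of active ingredient diluted in emulsifier-containing water, then infested with mustard beetle larvae after drying. Efficacy scored as % larval kill (100% = all killed, 0% = none) after the chosen time.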

In the next data set the test system is Musca domestica adults. Description: Musca domestica test (MUSCDO), Example 14. It is filed as in vivo. To be noted: application rate 100 ppm, treated sponge, after 2 days. In a few lines: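 Compound dissolved in DMSO and diluted in water to the test concentration, then applied to a sponge in vessels holding adult flies. Percent kill scored after 2 days (100% = all flies dead).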

Data set [6] deals with mustard beetle (Phaedon cochleariae). Description: Phaedon test (PHAECO spray treatment), Example 7. The format is in vivo. To be noted: application rate 20 g/ha, china cabbage leaf discs sprayed, after 7 days. A digest of the protocol:
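Spray formulation (acetone/DMF with alkylaryl polyglycol ether, diluted in emulsifier-containing water) applied to Chinese cabbage leaf discs, which were dried and then stocked with mustard beetle larvae. Efficacy scored at 7 days as % larvae killed (100% all, 0% none).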

Data set [7] has as its system red spider mite (Tetranychus urticae). Description: Tetranychus test, OP-resistant (TETRUR spray treatment), Example 8. The format is in vivo. To be noted: application rate 20 g/ha, common bean leaf discs sprayed, after 6 days. A digest of the protocol:
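Bean (Phaseolus vulgaris) leaf discs carrying all stages of OP-resistant Tetranychus urticae sprayed with compound in acetone/DMF with emulsifier, diluted in water to the test concentration. Mortality scored after 6 days as % efficacy (100% = all mites killed).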

The subject of data set [8] is Boophilus microplus females of the SP-resistant Parkhurst strain. Briefly: Boophilus microplus test (DIP), Example 10. The format is in vivo. As to conditions: application rate 100 ppm, after 7 days. As for the experimental part: Boophilus microplus Test (DIP)
Test animals: adult engorged Boophilus microplus females of the SP-resistant Parkhurst strain • Solvent: dimethyl sulphoxide
10 mg of active ingredient are dissolved in 0.5 ml of dimethyl sulphoxide. For the purpose of preparing a suitable formulation, the active ingredient solution is diluted with water to the concentration desired in each case.
This active ingredient formulation is pipetted into tubes. 8-10 ticks are transferred into a further tube with holes. The tube is immersed into the active ingredient formulation, and all ticks are completely wetted. After the liquid has run out, the ticks are transferred onto filter discs in plastic dishes and stored in a climate-controlled room. The efficacy is assessed after 7 days by the number of fertile eggs laid. Eggs whose fertility is not outwardly visible are stored in glass tubes in a climate-controlled cabinet until the larvae hatch. Efficacy of 100% means that none of the ticks has laid any fertile eggs.

In data set [9] the test system is red spider mite (Tetranychus urticae). Description: Tetranychus test; OP-resistant (TETRUR spray treatment), Example 18. As to conditions: application rate 500 g/ha, common bean leaf discs sprayed, after 6 days. It is filed as in vivo. The method, then: Tetranychus Test; OP-Resistant (TETRUR Spray Treatment)
• Solvent: 78.0 parts by weight of acetone • 1.5 parts by weight of dimethylformamide • Emulsifier: 0.5 part by weight of alkylaryl polyglycol ether
To prepare an appropriate active ingredient formulation, 1 part by weight of active ingredient is mixed with the stated amounts of solvent and emulsifier, and the concentrate is diluted with emulsifier-containing water to the desired concentration. Leaf discs from the common bean (Phaseolus vulgaris) infested by all stages of the red spider mite (Tetranychus urticae) are sprayed with an active ingredient formulation of the desired concentration.
After 6 days, the efficacy in % is determined. 100% means that all spider mites were killed; 0% means that no spider mites were killed.

The test system of data set [10] is green peach aphid (Myzus persicae). Briefly: Myzus test (MYZUPE spray treatment), Example 17. The format is in vivo. To be noted: application rate 100 g/ha, china cabbage leaf discs sprayed, after 6 days. A digest of the protocol:
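Chinese cabbage leaf discs infested with all aphid stages were sprayed with compound formulated in acetone/dimethylformamide plus alkylaryl polyglycol ether emulsifier, diluted in emulsifier-containing water. Mortality read after 6 days as % efficacy (100% all killed, 0% none killed).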

Data set [11] shares this test system. Description: Myzus test (MYZUPE spray treatment), Example 5. As to conditions: application rate 20 g/ha, china cabbage leaf discs sprayed, after 6 days. It is filed as in vivo. As for the experimental part: Myzus Test (MYZUPE Spray Treatment)
• Solvent: 78 parts by weight of acetone • 1.5 parts by weight of dimethylformamide • Emulsifier: 0.5 part by weight of alkylaryl polyglycol ether
To prepare an active ingredient formulation, 1 part by weight of active ingredient is mixed with the stated amounts of solvent and emulsifier, and the concentrate is diluted with emulsifier-containing water to the desired concentration. Leaf discs from china cabbage (Brassica pekinensis) infested by all stages of the green peach aphid (Myzus persicae) are sprayed with an active ingredient formulation of the desired concentration.
After 6 days, the efficacy in % is determined. 100% means that all aphids were killed; 0% means that no aphids were killed.

Structures are written as SMILES.

Regarding `C#CC(C)(C)NC(=O)c1ccc(/C=C/C(=O)NC(c2cccc(C(F)(F)F)c2)C(F)(F)F)cc1C(F)(F)F` (stereo not drawn) [Ia-146], the “efficacy in % (fertile eggs laid)” value in the data set with Boophilus microplus [1] amounted to 100%. For the same compound, in the data set with Ctenocephalides felis, the “kill rate in % (efficacy)” value is reported as 90%. Moreover, the efficacy in % in [2] (application rate 100 g/ha) is 100%. Further, the logP result in data set [3] is reported as “HPLC-MS: logP = 3.8; mass”.

Regarding `O=C(/C=C/c1cccc(NC(=O)c2cccnc2Cl)c1)NC(c1cccc(C(F)(F)F)c1)C(F)(F)F` (stereo not drawn) [Ia-5, 2-Chloro-N-{3-[(1E)-3-oxo-3-({2,2,2-trifluoro-1-[3-(trifluoromethyl)phenyl]ethyl}amino)prop-1-en-1-yl]phenyl}nicotinamide], the “efficacy in % (fertile eggs laid)” value in the data set with Boophilus microplus [4] is 100%. Also, the pest or weed control at 0.02 mg in the data set with Boophilus microplus [1] (Rhipicephalus microplus, 168 h, read-out: efficacy in % (fertile eggs laid)) is 100%. Also, the “kill rate in % (efficacy)” value in the data set on Ctenocephalides felis is on record as 80%. Also, the pest or weed control at 500 g/ha in [5] (Phaedon cochleariae, foliar, read-out: efficacy in %) was determined as 100%. Moreover, in [3] (reverse-phase C18 HPLC column, pH 2.7, HPLC, C18 reverse phase, 43° C., acidic range pH 2.7, calibration with alkan-2-ones), the chromatographic logP was found to be 3.39.

For the compound `Cc1cc(/C=C/C(=O)NC(c2cccc(C(F)(F)F)c2)C(F)(F)F)ccc1C(=O)NCC(F)(F)F` (stereo not drawn) [Ia-18], the “efficacy in % (fertile eggs laid)” value in the data set on Boophilus microplus [1] stood at 100%. The “kill rate in % (efficacy)” value is on record as 98% with Ctenocephalides felis and 90% with Musca domestica adults. Moreover, in [3], the logP entry was “HPLC-MS: logP = 3.56; mass”.

`CC(NC(=O)c1ccc(/C=C/C(=O)NC(c2cccc(C(F)(F)F)c2)C(F)(F)F)cc1Cl)C1CC1` (stereo not drawn) [Ia-114]: the efficacy in % in data set [6] and in data set [7] was 100% each time. Moreover, the “efficacy in % (fertile eggs laid)” value in [8] came out at 85%; in the data set with Boophilus microplus [1], 100%. Moreover, the logP result in data set [3] is on record as “HPLC-MS: logP = 3.68 mass”.

As to `Cn1cnc(CNC(=O)c2ccc(/C=C/C(=O)NC(c3cccc(C(F)(F)F)c3)C(F)(F)F)cc2C(F)(F)F)c1` (stereo not drawn) [Ia-76], the “efficacy in % (fertile eggs laid)” value in the data set with Boophilus microplus [4] and with Boophilus microplus [1] was 100% each time. The efficacy in % in [6] turned out to be 100%. Besides, the “kill rate in % (efficacy)” value in the data set on Ctenocephalides felis amounted to 80%. Further, in [3], the logP entry is reported as “HPLC-MS: logP = 1.72; mass”.

On to `Cc1cc(/C=C/C(=O)NC(c2cccc(C(F)(F)F)c2)C(F)(F)F)ccc1C(=O)NCC(F)F` (stereo not drawn) [Ia-100], for which the efficacy in % in data set [6] was 100%; in [7], 80%; in [2] (application rate 500 g/ha), “Ia-100%”; in data set [5], “Ia-100%”; in data set [9], “Ia-100%”. For the same compound, the logP result in data set [3] is given as “HPLC-MS: logP = 3.13 mass”.

For `O=C(/C=C/c1ccc(C(=O)NC(CF)CF)c(Cl)c1)NC(c1cccc(C(F)(F)F)c1)C(F)(F)F` (stereo not drawn) [Ia-155], the figures for the “efficacy in % (fertile eggs laid)” value (in data set [8]; in the data set on Boophilus microplus [1]) were 90% and 100%, respectively. Moreover, the values for the efficacy in % in data set [2] (application rate 100 g/ha) and in data set [10] were 83% and 100%, respectively. Besides, the logP result in data set [3] was “HPLC-MS: logP = 3.36; mass”.

As for `Cc1cc(/C=C/C(=O)NC(c2cccc(C(F)(F)F)c2)C(F)(F)F)ccc1C(=O)NCCC1CC1` (stereo not drawn) [Ia-115], the efficacy in % in [11] amounted to 90%; in [6] it was 100%; in data set [7] it was 90%; in data set [10] it was 100%. Besides, the logP result in [3] was “HPLC-MS: logP = 3.61 mass”.

A word on the chromatographic logP: it is a lipophilicity value derived from retention on a column. Higher therefore signals a more lipophilic compound.
